From patent US20170050966A1, “INHIBITING THE TRANSIENT RECEPTOR POTENTIAL A1 ION CHANNEL” (HYDRA BIOSCIENCES, INC., priority 2014, published 2017)

Assays:
[1] = Plasma protein binding, equilibrium dialysis; details: pooled K2EDTA plasma
Description: With this method, free compound is separated from protein-bound compound by dialysis across a semi-permeable membrane.
The protein binding was tested at a concentration of 1 μM. Pooled human, cynomolgus monkey, dog, and rat K2EDTA plasma was thawed and centrifuged at 2000×g for 10 minutes at 4° C. to remove particulates; any lipid on the top of the supernatant was also removed by aspiration. The plasma was warmed to 37° C. for 10 minutes before use. Test compounds were spiked into 2 ml plasma in a polypropylene plate to a final concentration of 1 μM. Triplicate 400 μl aliquots of spiked plasma were transferred into the Thermo RED dialysis units and dialyzed against 600 μl of PBS buffer. […] After 6 hours dialysis, triplicate 50 μl aliquots were removed from the RED plate, matrix-matched with either PBS buffer or blank plasma, as appropriate, and quenched with 4 volumes of ACN containing an internal standard. The extracted samples were then centrifuged at 2000×g for 5 minutes at 4° C. The supernatant (50 μl) was removed and diluted with 100 μl water prior to LC/MS/MS bioanalysis.

[2] = biological target: dogTRPA1 (Canis lupus familiaris, UniProt A0A8I3Q1Q7); assay: TRPA1 IC50, whole-cell patch clamp; format: cell-based, Dog; details: dogTRPA1, 10 μM AITC; read-out: IC50 Inward current
Chain of dogTRPA1 (A0A8I3Q1Q7 1-1118): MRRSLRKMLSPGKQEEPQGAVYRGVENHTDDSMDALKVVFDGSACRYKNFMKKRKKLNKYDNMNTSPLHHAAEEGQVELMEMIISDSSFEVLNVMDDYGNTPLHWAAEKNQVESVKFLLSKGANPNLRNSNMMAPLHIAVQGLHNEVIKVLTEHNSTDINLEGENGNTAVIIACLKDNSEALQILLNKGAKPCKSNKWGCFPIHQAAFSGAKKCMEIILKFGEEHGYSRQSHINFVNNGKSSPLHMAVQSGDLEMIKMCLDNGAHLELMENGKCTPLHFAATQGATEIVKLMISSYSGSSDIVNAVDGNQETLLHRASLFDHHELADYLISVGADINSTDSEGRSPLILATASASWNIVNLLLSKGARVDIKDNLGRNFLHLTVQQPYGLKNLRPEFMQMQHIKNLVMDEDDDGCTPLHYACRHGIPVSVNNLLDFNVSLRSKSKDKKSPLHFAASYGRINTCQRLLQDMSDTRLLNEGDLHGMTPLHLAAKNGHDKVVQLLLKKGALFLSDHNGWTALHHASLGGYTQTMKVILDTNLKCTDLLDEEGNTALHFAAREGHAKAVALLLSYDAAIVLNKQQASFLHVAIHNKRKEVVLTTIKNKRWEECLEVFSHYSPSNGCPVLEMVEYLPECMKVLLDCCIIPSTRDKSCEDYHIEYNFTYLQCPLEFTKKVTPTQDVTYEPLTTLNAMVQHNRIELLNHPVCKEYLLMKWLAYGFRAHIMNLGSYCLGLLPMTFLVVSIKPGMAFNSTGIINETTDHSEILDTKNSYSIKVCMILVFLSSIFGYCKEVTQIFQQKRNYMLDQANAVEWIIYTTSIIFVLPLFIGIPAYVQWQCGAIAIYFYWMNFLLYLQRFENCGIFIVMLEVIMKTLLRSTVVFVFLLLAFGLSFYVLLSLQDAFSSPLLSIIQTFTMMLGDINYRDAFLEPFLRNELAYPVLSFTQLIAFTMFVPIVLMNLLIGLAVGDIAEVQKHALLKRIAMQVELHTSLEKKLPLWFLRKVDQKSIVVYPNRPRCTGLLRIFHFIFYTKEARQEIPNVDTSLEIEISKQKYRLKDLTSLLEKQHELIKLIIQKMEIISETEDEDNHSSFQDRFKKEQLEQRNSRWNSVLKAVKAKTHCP
Source text: The change in IC50 block in the presence of albumin and plasma was also studied. It is assumed that the pharmacological effect of a drug correlates to unbound plasma levels, which is known as the “free drug hypothesis”. The aim of this study was to estimate the change in IC50 for block of human TRPA1 (hTRPA1) by Compound 2 in the presence of physiologically relevant concentrations of albumin and plasma (see Table 7). The human form of TRPA1 was used to assess protein binding in all species due to technical issues. The whole-cell patch clamp technique as described in del Camino, D. et al. J Neurosci 74 (2010) 30:15165 was employed to measure current through hTRPA1 upon activation by allyl isothiocyanate (AITC), the active ingredient in mustard oil, in the presence of 1% (w/v) serum albumin or 25% (v/v) plasma from various species including human plasma (hPlasma), human serum albumin (HSA), rat plasma (rPlasma), rat serum albumin (RSA), dog plasma, and sheep serum albumin (sheepSA). […]
Data for TRPA1 inhibition was obtained by this method for the indicated compounds of Formula (I), with the relevant data included in Table 14 below. All currents were recorded in whole-cell configuration using EPC-9 and EPC-10 amplifiers and Patchmaster software (HEKA). […]

[3] = PK comparison of capsule and suspension formulations; details: monkey, in vivo, po, 250 mg, monkeys
Description: Another study was conducted to compare the PK parameters of capsule and suspension formulations of Compound 2. All monkeys were dosed with 250 mg Compound 2. Two groups were dosed with the capsule formulation: one fasted and one allowed food ad libitum. The animals that received the suspension formulation were dosed using a nasogastric tube and were fasted. […] When the PK profile of the capsule formulation was compared in both fasted and fed monkeys, the bioavailability of Compound 2 capsules was numerically greater in fasted monkeys.

[4] = Plasma levels in CFA cold hypersensitivity study; format: in vivo, rat
Source text: Table 16 summarizes the average plasma levels of Compound 2 and Compound A. Approximately dose proportional exposures of Compound 2 were observed throughout the dose range tested. Decreased plasma binding of Compound 2 indicates an improved bioavailability of Compound 2 to the subjects over Compound A.

[5] = system: cynomolgus monkeys; assay: Hepatotoxicity safety profile, serum biomarkers; format: in vivo; details: for ALP d28 / ALT d28 / AST d28 / GGT d28: day 28
Description: Compound 2 in the vehicle (0.5% methylcellulose, 400 cps) was administered via nasogastric intubation once daily for 28 or 29 consecutive days to 4 groups of cynomolgus monkeys. Each group received one dose level. Dosage levels were 10, 30, 100, and 300 mg/kg/day per group. […] The dosage volume was 10 ml/kg for all groups. Hepatoxicity was measured via the serum biomarkers of alanine aminotransferease [ALT], aspartate aminotransferase [AST], alkaline phosphastase [ALP] and gamma-glutamyl transferase [GGT] which represent hepatotoxicity or bile duct injury.

[6] = Storage stability of anhydrous solid crystalline form (XRPD); format: physicochemical; details: Form B, ambient conditions for three months
Source text: After storage of this solid crystalline form at ambient conditions for three months, the sample was subjected to XRPD analysis again.

[7] = biological target: CYP2C8 (Homo sapiens, UniProt P10632); assay: in vitro; details: probe Amodiaquine
Chain of CYP2C8 (P10632 whole entry): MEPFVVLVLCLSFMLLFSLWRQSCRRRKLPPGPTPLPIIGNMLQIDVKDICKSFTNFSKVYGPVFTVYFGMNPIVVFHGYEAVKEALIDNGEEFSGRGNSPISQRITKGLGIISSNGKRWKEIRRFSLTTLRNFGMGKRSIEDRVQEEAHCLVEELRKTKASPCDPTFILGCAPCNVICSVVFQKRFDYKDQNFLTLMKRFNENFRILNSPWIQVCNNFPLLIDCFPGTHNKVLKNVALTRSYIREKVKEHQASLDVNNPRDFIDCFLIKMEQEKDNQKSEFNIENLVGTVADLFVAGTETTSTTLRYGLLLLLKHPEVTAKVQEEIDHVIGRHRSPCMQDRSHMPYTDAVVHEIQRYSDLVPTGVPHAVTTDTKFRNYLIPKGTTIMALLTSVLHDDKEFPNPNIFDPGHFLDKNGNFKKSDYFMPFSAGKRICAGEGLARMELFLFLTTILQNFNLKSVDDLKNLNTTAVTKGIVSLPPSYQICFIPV

[8] = biological target: CYP2C19 (Homo sapiens, UniProt P33261); assay: in vitro; details: probe Mephenytoin
Chain of CYP2C19 (P33261 whole entry): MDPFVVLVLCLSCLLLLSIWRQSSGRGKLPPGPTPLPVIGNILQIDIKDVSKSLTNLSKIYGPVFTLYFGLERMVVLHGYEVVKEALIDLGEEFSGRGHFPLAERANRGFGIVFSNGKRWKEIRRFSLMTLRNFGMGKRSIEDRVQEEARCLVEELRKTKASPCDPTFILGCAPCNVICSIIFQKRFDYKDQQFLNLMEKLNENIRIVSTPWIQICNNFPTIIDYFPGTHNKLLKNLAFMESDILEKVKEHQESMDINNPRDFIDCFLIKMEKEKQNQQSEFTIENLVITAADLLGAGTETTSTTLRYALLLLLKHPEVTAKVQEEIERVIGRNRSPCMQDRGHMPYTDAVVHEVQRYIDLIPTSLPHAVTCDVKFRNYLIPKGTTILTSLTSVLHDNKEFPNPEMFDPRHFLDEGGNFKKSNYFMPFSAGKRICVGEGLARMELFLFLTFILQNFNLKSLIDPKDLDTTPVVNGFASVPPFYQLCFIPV

[9] = biological target: CYP2D6 (Homo sapiens, UniProt P10635); assay: in vitro; details: probe Dextromethorphan
Chain of CYP2D6 (P10635 whole entry): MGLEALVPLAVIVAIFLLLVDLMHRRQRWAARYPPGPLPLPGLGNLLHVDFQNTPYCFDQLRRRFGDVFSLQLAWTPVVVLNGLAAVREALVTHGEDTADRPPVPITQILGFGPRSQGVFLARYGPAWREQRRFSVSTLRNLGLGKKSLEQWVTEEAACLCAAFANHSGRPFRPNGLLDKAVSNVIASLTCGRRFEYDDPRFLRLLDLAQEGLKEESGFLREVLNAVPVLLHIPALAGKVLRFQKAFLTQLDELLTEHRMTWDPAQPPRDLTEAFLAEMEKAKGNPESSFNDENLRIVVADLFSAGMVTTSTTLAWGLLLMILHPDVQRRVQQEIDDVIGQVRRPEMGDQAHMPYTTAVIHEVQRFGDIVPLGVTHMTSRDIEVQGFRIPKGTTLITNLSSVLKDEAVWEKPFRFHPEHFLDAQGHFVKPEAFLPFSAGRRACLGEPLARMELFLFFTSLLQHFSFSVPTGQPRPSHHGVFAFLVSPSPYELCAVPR

C[C@@H](C(=O)Nc1ccnc(-c2cnc(N3CCC[C@H]3C(F)(F)F)nc2)n1)n1cnc2c1c(=O)n(C)c(=O)n2C [Compound 2, (S)-2-(1,3-dimethyl-2,6-dioxo-2,3-dihydro-1H-purin-7(6H)-yl)-N-(2′-((S)-2-(trifluoromethyl)pyrrolidin-1-yl)-[2,5′-bipyrimidin]-4-yl)propanamide]
fraction unbound at 6 h, 1 μM ([1]; beagle, dog): 0.055 | fraction unbound at 6 h, 1 μM ([1]; cynomolgus monkey): 0.02 | IC50 [2]: 23.5 ± 6.4 nM | bioavailability ([3]; Capsule (fasted)): 13% | bioavailability ([3]; Capsule (fed)): 10% | bioavailability ([3]; Suspension (fasted)): 7.8% | PLASMA ([4]; 0.3 mg/kg PO): 70 ± 11 ng/mL | PLASMA ([4]; 1 mg/kg PO): 265 ± 56 ng/mL | PLASMA ([4]; 3 mg/kg PO): 800 ± 160 ng/mL | PLASMA ([4]; 10 mg/kg PO): 2780 ± 425 ng/mL | ALP d28 ([5]; 10 mg/kg/day nasogastric): 744.0 U/L | ALT d28 ([5]; 10 mg/kg/day nasogastric): 87.0 U/L | AST d28 ([5]; 10 mg/kg/day nasogastric): 126.0 U/L | GGT d28 ([5]; 10 mg/kg/day nasogastric): 64.0 U/L | ALP d28 ([5]; 30 mg/kg/day nasogastric): 461.0 U/L | ALT d28 ([5]; 30 mg/kg/day nasogastric): 50.0 U/L | AST d28 ([5]; 30 mg/kg/day nasogastric): 72.0 U/L | GGT d28 ([5]; 30 mg/kg/day nasogastric): 49.0 U/L | ALP d28 ([5]; 100 mg/kg/day nasogastric): 532.0 U/L | ALT d28 ([5]; 100 mg/kg/day nasogastric): 61.0 U/L | AST d28 ([5]; 100 mg/kg/day nasogastric): 70.0 U/L | GGT d28 ([5]; 100 mg/kg/day nasogastric): 53.7 U/L | ALP d28 ([5]; 300 mg/kg/day nasogastric): 441.0 U/L | ALT d28 ([5]; 300 mg/kg/day nasogastric): 67.0 U/L | AST d28 ([5]; 300 mg/kg/day nasogastric): 134.0 U/L | GGT d28 ([5]; 300 mg/kg/day nasogastric): 54.8 U/L | serum biomarkers of hepatotoxicity (ALT, AST, ALP, GGT) ([5]; cynomolgus monkeys, once daily for 28 or 29 days): did not elevate the serum biomarkers up to and including a dose of 300 mg/kg | XRPD pattern after storage [6]: matches the original indexed pattern | inhibition at 10 µM [7]: 3.2% | inhibition at 10 µM [8]: 37.1% | inhibition at 10 µM [9]: 9.5%
